From patent US9090628B2, “Benzoxazepin compounds selective for PI3K P110 delta and methods of use” (GENENTECH, INC., priority 2011, dated 2015)

Columns and labels:
[1] = target: p110 delta (Homo sapiens (Human), UniProt O00329); experiment: PI3K isoform inhibition assay, p110 delta (fluorescence polarization displacement); assay type: biochemical
Experimental: (§1) PI3K enzymatic activity was assayed by measuring the amount of product phosphatidylinositol 3,4,5-phosphate (PIP3) formed from substrate 4,5 phosphatidylinositol 4,5-phosphate (PIP2) using a fluorescence polarization displacement assay. The decrease in fluorescence polarization of a fluorescent PIP3 probe is measured as it is displaced from a PIP3-binding protein GRP-1 detector by PI3K-catalyzed product. […] The kinase reactions were initiated by the addition of 40 ng/mL p110α/p85α, 300 ng/mL p110β/p85α, 40 ng/mL p110γ, or 40 ng/mL p110δ/p85α (Upstate Group, Millipore; Dundee, UK), and 10 μM PIP2 (Echelon Biosciences) to the wells. […] After 60 minutes of incubation at room temperature to allow equilibration of labeled and unlabeled PIP3 binding, the parallel and perpendicular components of the fluorescence emissions from each sample were measured at an excitation wavelength of 530 nm and an emission wavelength of 590 nm using an Envision fluorescent plate reader with a rhodamine filter (PerkinElmer Life and Analytical Sciences; Wellesley, Mass.). The assay is capable of detecting 0.1-2.0 μM PIP3 product. The IC50 values were obtained by fitting the dose-dependent inhibition data to a 4-parameter equation using Assay Explorer software (MDL, San Ramon, Calif.).
The Formula I compound was serially diluted in 100% DMSO. The kinase reaction was incubated for 1 h at room temperature, and the reaction was terminated by the addition of PBS. IC50 values were subsequently determined using sigmoidal dose-response curve fit (variable slope).
(§2) The four Class I PI 3-kinases are cloned into baculovirus vectors as follows: […]

[2] = target: p110 alpha (Homo sapiens (Human), UniProt P42336); experiment: PI3K isoform inhibition assay, p110 alpha (for alpha/delta selectivity); settings: ratio of biochemical IC50 values
Experimental: as §1
The same protocol may be used to establish IC50 values for p110α (alpha) PI3K binding.
as §2

p110 alpha, sequence (P42336 whole entry, canonical isoform): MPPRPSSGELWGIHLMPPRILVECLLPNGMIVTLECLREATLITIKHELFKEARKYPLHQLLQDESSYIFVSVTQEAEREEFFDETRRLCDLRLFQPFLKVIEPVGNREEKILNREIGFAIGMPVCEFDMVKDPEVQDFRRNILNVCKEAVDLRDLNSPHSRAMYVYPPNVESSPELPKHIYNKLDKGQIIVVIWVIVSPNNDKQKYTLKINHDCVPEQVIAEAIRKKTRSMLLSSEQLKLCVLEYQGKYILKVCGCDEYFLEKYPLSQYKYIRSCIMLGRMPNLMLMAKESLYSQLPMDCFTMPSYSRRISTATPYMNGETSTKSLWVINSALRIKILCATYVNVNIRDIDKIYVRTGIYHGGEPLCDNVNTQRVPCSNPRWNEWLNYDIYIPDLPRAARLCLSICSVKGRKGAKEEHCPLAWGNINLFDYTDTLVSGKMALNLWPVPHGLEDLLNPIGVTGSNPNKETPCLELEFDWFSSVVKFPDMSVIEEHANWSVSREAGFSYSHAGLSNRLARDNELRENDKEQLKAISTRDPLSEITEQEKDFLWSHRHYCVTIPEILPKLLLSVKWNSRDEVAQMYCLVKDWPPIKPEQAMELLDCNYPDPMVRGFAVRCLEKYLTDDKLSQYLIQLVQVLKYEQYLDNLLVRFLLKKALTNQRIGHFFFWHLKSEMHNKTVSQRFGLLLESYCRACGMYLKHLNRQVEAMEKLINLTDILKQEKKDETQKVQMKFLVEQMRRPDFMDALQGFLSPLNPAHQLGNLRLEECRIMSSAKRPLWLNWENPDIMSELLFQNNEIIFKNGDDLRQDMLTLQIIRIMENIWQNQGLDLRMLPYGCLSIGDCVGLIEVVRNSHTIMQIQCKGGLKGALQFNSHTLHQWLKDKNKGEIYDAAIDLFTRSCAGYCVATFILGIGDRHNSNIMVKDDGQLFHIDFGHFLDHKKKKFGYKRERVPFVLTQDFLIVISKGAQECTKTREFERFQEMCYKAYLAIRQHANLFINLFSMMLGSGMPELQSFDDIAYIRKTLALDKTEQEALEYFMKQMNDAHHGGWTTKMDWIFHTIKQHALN
p110 alpha, sequence (P27986 whole entry partner, canonical isoform): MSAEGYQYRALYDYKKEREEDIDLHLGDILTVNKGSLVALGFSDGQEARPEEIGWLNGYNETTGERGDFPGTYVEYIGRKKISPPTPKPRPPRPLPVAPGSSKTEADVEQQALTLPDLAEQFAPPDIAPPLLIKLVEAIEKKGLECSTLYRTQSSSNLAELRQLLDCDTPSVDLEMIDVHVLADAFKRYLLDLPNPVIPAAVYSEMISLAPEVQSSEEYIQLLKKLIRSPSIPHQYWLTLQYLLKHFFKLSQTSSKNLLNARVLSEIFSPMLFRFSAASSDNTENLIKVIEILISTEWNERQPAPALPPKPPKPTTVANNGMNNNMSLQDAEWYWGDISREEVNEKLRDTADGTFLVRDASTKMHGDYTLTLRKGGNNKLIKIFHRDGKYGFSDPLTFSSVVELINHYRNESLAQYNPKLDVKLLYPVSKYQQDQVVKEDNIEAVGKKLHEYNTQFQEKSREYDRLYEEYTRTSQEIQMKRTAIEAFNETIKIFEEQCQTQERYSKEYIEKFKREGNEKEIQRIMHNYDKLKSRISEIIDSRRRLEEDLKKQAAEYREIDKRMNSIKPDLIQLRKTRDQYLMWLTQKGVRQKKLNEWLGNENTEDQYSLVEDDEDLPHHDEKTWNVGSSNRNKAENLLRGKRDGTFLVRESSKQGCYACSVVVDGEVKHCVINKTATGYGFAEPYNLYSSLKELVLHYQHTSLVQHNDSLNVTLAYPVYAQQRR
p110 delta, sequence (O00329 whole entry, canonical isoform): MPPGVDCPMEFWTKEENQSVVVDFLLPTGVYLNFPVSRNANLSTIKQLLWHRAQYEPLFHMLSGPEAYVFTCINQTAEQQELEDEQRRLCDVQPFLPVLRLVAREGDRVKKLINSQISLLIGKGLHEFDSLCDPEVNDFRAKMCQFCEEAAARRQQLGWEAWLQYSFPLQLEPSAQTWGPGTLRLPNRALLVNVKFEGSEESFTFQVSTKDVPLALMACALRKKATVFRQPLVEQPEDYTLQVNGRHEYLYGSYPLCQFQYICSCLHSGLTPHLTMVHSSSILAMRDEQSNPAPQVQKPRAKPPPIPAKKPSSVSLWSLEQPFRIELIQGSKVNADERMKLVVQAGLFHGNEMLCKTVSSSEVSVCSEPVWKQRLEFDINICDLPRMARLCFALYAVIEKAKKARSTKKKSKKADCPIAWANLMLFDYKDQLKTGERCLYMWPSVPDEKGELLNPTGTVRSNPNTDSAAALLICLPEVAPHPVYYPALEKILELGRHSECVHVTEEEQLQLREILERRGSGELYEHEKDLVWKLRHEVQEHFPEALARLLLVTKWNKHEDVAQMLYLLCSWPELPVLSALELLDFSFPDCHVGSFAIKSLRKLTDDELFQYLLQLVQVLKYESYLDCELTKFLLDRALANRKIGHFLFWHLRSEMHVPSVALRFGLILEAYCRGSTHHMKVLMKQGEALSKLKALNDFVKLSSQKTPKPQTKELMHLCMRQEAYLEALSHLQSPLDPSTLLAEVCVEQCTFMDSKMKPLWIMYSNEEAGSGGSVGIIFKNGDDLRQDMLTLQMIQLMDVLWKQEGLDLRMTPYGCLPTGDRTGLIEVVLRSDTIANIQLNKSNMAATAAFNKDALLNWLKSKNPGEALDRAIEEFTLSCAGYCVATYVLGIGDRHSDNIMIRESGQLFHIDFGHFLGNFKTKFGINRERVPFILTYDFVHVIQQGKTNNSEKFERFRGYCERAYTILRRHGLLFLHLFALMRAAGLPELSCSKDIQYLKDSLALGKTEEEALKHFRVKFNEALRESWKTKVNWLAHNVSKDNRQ
p110 delta, sequence (P27986 whole entry partner, canonical isoform): as the sequence (P27986 whole entry partner, canonical isoform) above

| IC50 [1] | IC50 p110 alpha/IC50 p110 delta [2] | Structure (SMILES) |
| --- | --- | --- |
| 0.878 nM | 32.7 | Cc1nc(-c2cn3c(n2)-c2ccc(-c4cn(C)nc4C4CCCN(C(C)C)C4)cc2OCC3)n(C(C)C)n1 (centres unmarked) [Example 280, 2-(2-isopropyl-5-methyl-1,2,4-triazol-3-yl)-9-[3-(1-isopropyl-3-piperidyl)-1-methyl-pyrazol-4-yl]-5,6-dihydroimidazo[1,2-d][1,4]benzoxazepine] |
| 0.415 nM | 46.4 | Cc1nc(-c2cn3c(n2)-c2cc(-c4ccnn4C4CCCN(C(C)(C)CO)C4)c(F)cc2OCC3)n(C(C)C)n1 [Example 355, (R)-2-(3-(5-(9-fluoro-2-(1-isopropyl-3-methyl-1H-1,2,4-triazol-5-yl)-5,6-dihydrobenzo[f]imidazo[1,2-d][1,4]oxazepin-10-yl)-1H-pyrazol-1-yl)piperidin-1-yl)-2-methylpropan-1-ol] |
| 2.42 nM | 15.9 | CC(C)n1nc(CO)nc1-c1cn2c(n1)-c1ccc(-c3ccnn3C3CCN(C)CC3)cc1OCC2 [Example 290, [1-isopropyl-5-[9-[2-(1-methyl-4-piperidyl)pyrazol-3-yl]-5,6-dihydroimidazo[1,2-d][1,4]benzoxazepin-2-yl]-1,2,4-triazol-3-yl]methanol] |
| 0.936 nM | 75.5 | Cc1nc(-c2cn3c(n2)-c2ccc(OC4(CC5CC5)CN(C(C)C)C4)cc2OCC3)n(C(C)C)n1 [Example 283, 9-[3-(cyclopropylmethyl)-1-isopropyl-azetidin-3-yl]oxy-2-(2-isopropyl-5-methyl-1,2,4-triazol-3-yl)-5,6-dihydroimidazo[1,2-d][1,4]benzoxazepine] |
| 0.784 nM | 116 | COc1cc2c(cc1[C@H](C)N1CCN(C(C)(C)C)CC1)-c1nc(-c3nc(C)nn3C(C)C)cn1CCO2 [Example 357, (S)-10-(1-(4-tert-butylpiperazin-1-yl)ethyl)-2-(1-isopropyl-3-methyl-1H-1,2,4-triazol-5-yl)-9-methoxy-5,6-dihydrobenzo[f]imidazo[1,2-d][1,4]oxazepine] |
| 0.707 nM | 18.3 | CC(C)n1ncnc1-c1cn2c(n1)-c1cnc(N3CCCC3CN3CCCC3)cc1OCC2 (centres unmarked) [Example 105, 2-(1-isopropyl-1H-1,2,4-triazol-5-yl)-9-(2-(pyrrolidin-1-ylmethyl)pyrrolidin-1-yl)-5,6-dihydroimidazo[1,2-d]pyrido[3,4-f][1,4]oxazepine] |
| 2.27 nM | 96.5 | Cc1nc(-c2cn3c(n2)-c2ccc(-c4cnn(C)c4C4CC(N(C)C(C)C)CCO4)cc2OCC3)n(C(C)C)n1 (centres unmarked) [Example 335, N-isopropyl-2-[4-[2-(2-isopropyl-5-methyl-1,2,4-triazol-3-yl)-5,6-dihydroimidazo[1,2-d][1,4]benzoxazepin-9-yl]-2-methyl-pyrazol-3-yl]-N-methyl-tetrahydropyran-4-amine] |
| 3.31 nM | 26.1 | Cc1nc(-c2cn3c(n2)-c2ccc(OC4(CN5CCN(C)CC5)CC4)cc2OCC3)n(C(C)C)n1 [Example 259, 2-(1-isopropyl-3-methyl-1H-1,2,4-triazol-5-yl)-9-(1-((4-methylpiperazin-1-yl)methyl)cyclopropoxy)-5,6-dihydrobenzo[f]imidazo[1,2-d][1,4]oxazepine] |
| 0.314 nM | 151 | Cc1nc(-c2cn3c(n2)-c2cc(-c4ccnn4C4CCCN(C(C)(C)CO)C4)c(F)cc2OCC3)n(C(C)C)n1 [Example 353, (R)-2-(3-(5-(9-fluoro-2-(1-isopropyl-3-methyl-1H-1,2,4-triazol-5-yl)-5,6-dihydrobenzo[f]imidazo[1,2-d][1,4]oxazepin-10-yl)-1H-pyrazol-1-yl)piperidin-1-yl)-2-methylpropan-1-ol] |
| 0.048 nM | 48.8 | Cc1nc(-c2cn3c(n2)-c2ccc(-c4cnn(C)c4N4CCN(C)[C@H](C(C)C)C4)cc2OCC3)n(C(C)C)n1 [Example 367, 9-[5-[(3R)-3-isopropyl-4-methyl-piperazin-1-yl]-1-methyl-pyrazol-4-yl]-2-(2-isopropyl-5-methyl-1,2,4-triazol-3-yl)-5,6-dihydroimidazo[1,2-d][1,4]benzoxazepine] |
| 0.416 nM | 52.9 | Cc1nc(-c2cn3c(n2)-c2ccc(N4CCC[C@@H]4CN4CCCC4)cc2OCC3)n(C(C)C)n1 [Example 326, (R)-2-(1-isopropyl-3-methyl-1H-1,2,4-triazol-5-yl)-9-(2-(pyrrolidin-1-ylmethyl)pyrrolidin-1-yl)-5,6-dihydrobenzo[f]imidazo[1,2-d][1,4]oxazepine] |
| 0.236 nM | 54.6 | Cc1nc(-c2cn3c(n2)-c2ccc(N4CCCC45CCCN(C)C5)cc2OCC3)n(C(C)C)n1 (centres unmarked) [Example 320, 2-(2-isopropyl-5-methyl-1,2,4-triazol-3-yl)-9-(7-methyl-1,7-diazaspiro[4.5]decan-1-yl)-5,6-dihydroimidazo[1,2-d][1,4]benzoxazepine] |
| 5.68 nM | 31.9 | Cc1nc(-c2cn3c(n2)-c2ccc(N4CCCC4C4CCCN(C)C4)cc2OCC3)n(C(C)C)n1 (centres unmarked) [Example 322, 2-(2-isopropyl-5-methyl-1,2,4-triazol-3-yl)-9-[2-(1-methyl-3-piperidyl)pyrrolidin-1-yl]-5,6-dihydroimidazo[1,2-d][1,4]benzoxazepine] |
| 5.63 nM | 30.6 | Cc1nc(-c2cn3c(n2)-c2cc(C(=O)N4CCN(C(C)(C)CO)CC4)c(F)cc2OCC3)n(C(C)C)n1 [Example 281, [9-fluoro-2-(2-isopropyl-5-methyl-1,2,4-triazol-3-yl)-5,6-dihydroimidazo[1,2-d][1,4]benzoxazepin-10-yl]-[4-(2-hydroxy-1,1-dimethyl-ethyl)piperazin-1-yl]methanone] |
| 2.32 nM | 25.8 | Cc1nc(-c2cn3c(n2)-c2cc([C@H](C)N4CCN(C(C)C)CC4)c(F)cc2OCC3)n(C(C)C)n1 [Example 340, (S)-9-fluoro-2-(1-isopropyl-3-methyl-1H-1,2,4-triazol-5-yl)-10-(1-(4-isopropylpiperazin-1-yl)ethyl)-5,6-dihydrobenzo[f]imidazo[1,2-d][1,4]oxazepine] |
| 1.35 nM | 46.8 | Cc1nc(-c2cn3c(n2)-c2ccc(N4CCCC4C4CCCN(C)C4)cc2OCC3)n(C(C)C)n1 (centres unmarked) [Example 311, 2-(2-isopropyl-5-methyl-1,2,4-triazol-3-yl)-9-[2-(1-methyl-3-piperidyl)pyrrolidin-1-yl]-5,6-dihydroimidazo[1,2-d][1,4]benzoxazepine] |
| 2.2 nM | 34 | Cc1nc(-c2cn3c(n2)-c2ccc(N4CCCC4C4CCN(CC(C)(C)O)CC4)cc2OCC3)n(C(C)C)n1 (centres unmarked) [Example 274, 1-[4-[1-[2-(2-isopropyl-5-methyl-1,2,4-triazol-3-yl)-5,6-dihydroimidazo[1,2-d][1,4]benzoxazepin-9-yl]pyrrolidin-2-yl]-1-piperidyl]-2-methyl-propan-2-ol] |
| 1.05 nM | 45.5 | COc1cc2c(cc1[C@@H](C)N1CCN(C(C)(C)C)CC1)-c1nc(-c3nc(C)nn3C(C)C)cn1CCO2 [Example 356, (R)-10-(1-(4-tert-butylpiperazin-1-yl)ethyl)-2-(1-isopropyl-3-methyl-1H-1,2,4-triazol-5-yl)-9-methoxy-5,6-dihydrobenzo[f]imidazo[1,2-d][1,4]oxazepine] |
| 1.99 nM | 212 | Cc1nc(-c2cn3c(n2)-c2cc([C@H](C)N4CCN(C(C)(C)CO)CC4)c(F)cc2OCC3)n(C(C)C)n1 [Example 350, (S)-2-(4-(1-(9-fluoro-2-(1-isopropyl-3-methyl-1H-1,2,4-triazol-5-yl)-5,6-dihydrobenzo[f]imidazo[1,2-d][1,4]oxazepin-10-yl)ethyl)piperazin-1-yl)-2-methylpropan-1-ol] |
| 14 nM | 17.3 | CC(C)n1ncnc1-c1cn2c(n1)-c1ccc(-c3ccccc3S(N)(=O)=O)cc1OCC2 [Example 109, 2-(2-(1-isopropyl-1H-1,2,4-triazol-5-yl)-5,6-dihydrobenzo[f]imidazo[1,2-d][1,4]oxazepin-9-yl)benzenesulfonamide] |
| 0.678 nM | 13 | Cc1nc(-c2cn3c(n2)-c2cc([C@H](C)N4CCN(C(C)C)CC4)c(C)cc2OCC3)n(C(C)C)n1 [Example 332, (S)-2-(1-isopropyl-3-methyl-1H-1,2,4-triazol-5-yl)-10-(1-(4-isopropylpiperazin-1-yl)ethyl)-9-methyl-5,6-dihydrobenzo[f]imidazo[1,2-d][1,4]oxazepine] |

| Structure (SMILES) | IC50 [1] | IC50 p110 alpha/IC50 p110 delta [2] |
| --- | --- | --- |
| Cc1nc(-c2cn3c(n2)-c2cc([C@H](C)N4CCN(C(C)(C)C)CC4)c(F)cc2OCC3)n(C(C)C)n1 [Example 297, (S)-10-(1-(4-tert-butylpiperazin-1-yl)ethyl)-9-fluoro-2-(1-isopropyl-3-methyl-1H-1,2,4-triazol-5-yl)-5,6-dihydrobenzo[f]imidazo[1,2-d][1,4]oxazepine] | 2.42 nM | 102 |
